For this test, the system named is 22Rv1 xenografts. Description: 22Rv1 xenograft model. The conditions noted are these: DD1-Br 0.1 mg/kg i.p., ENZ 10 mg/kg p.o., alone or combined, 5 times a week. It counts as in vivo, mice.

For the compound `CNC(=O)c1ccc(N2C(=S)N(c3ccc(C#N)c(C(F)(F)F)c3)C(=O)C2(C)C)cc1F` [ENZ, enzalutamide], the tumor growth entry is given as “did not show significant effect”.

For the origin of these results see PMC10692375 (Acta Pharmaceutica Sinica. B, 2023).
